# Legend:
# [1] = system: wild type MRC-5 human fetal lung fibroblasts; assay: Apoptosis and cell cycle assays in wild type MRC-5 fibroblasts; format: cell-based; settings: for cell cycle profile: 20 μM
# Method: (§1) Immunoblotting was performed as described with antibodies specific for p53 (sc-126 HRP; Santa Cruz), hdm2 (sc-965; Santa Cruz), p21 (556431; BD Pharmingen), Sp1 (sc-59; Santa Cruz), survivin (sc-10811; Santa Cruz), phospho RNA polymerase II (4735; Cell Signaling), total RNA polymerase II (8WG16; a gift from Dr. Schlegel, University of Illinois at Chicago), α-tubulin (T9026; Sigma), cleaved caspase-3 (9664; Cell Signaling), caspase-9 (9502; Cell Signaling) and β-actin (A5441; Sigma) antibodies.
# (§2) Apoptosis was detected either by DAPI (4′,6-diamidino-2-phenylindole) staining or by Flow Cytometry after PI (Propidium Iodide) staining. For DAPI staining, all treatments (DMSO or ARC) were done in triplicates in 6-well plates and cells were stained with DAPI and visualized by fluorescent microscopy. Four random fields for each sample were photographed and at least 500 cells per field were counted to estimate apoptosis. The data is represented as mean±Standard deviation (sd).
# For Flow Cytometry, cells were fixed in 70% ethanol and stored at −20° C. until further analysis. Equal numbers of fixed cells were then stained with PI solution (0.1% Triton X-100, 0.2 mg/ml DNase free RNase, 0.02 mg/ml propidium iodide) made in PBS for 15 min at 37° C. and analyzed by a flow cytometer.
# (§3) The ability of ARC to induce apoptosis in wild type and SV40-transformed MRC-5 human fetal lung fibroblasts was evaluated. Twenty-four hours after treatment with ARC, transformed fibroblasts underwent robust apoptosis (around 50% and 70%, respectively, with 5 and 10 μM of ARC) (FIGS. 4A and B). […] The transformed cell types may be more dependent on the survivin levels for their survival than their wild type counterparts and thus the reduction in these levels could be lethal to these cells.
# Moreover, the effect of 20 μM ARC treatment on wild type fibroblasts was analyzed and little change was found in the cell cycle profile after 24 hours (data not shown) and the cells undergo G2-arrest after 48 hours (FIG. 4D).
# [2] = system: HUVECs; assay: Motility assay with VEGF as chemoattractant; format: cell-based; settings: Homo sapiens, HUVEC; 24 hours pretreatment, average from two trials; read-out: IC50, cell motility
# Method: (§4) Different angiogenesis assays such as cord formation assay, motility assay and proliferation inhibition assay were performed at the developmental therapeutics program (DTP) branch of NCI (NCI/DTP) as described. HUVECs were used for all the assays. Taxol and TNP-470 were used as positive control for the assays.
# For motility assay, HUVECs were pretreated for 24 hours with different concentrations ARC and used in the assay with vascular endothelial growth factor (VEGF) as a chemoattractant.
# [3] = system: MCF-7 breast cancer cells; assay: Apoptosis assays in MCF-7 breast cancer cells; format: cell-based, human
# Method: as §1, §2
# In order to further characterize ARC with respect to its apoptotic potential, cell lines derived from cancers of different origin were utilized. MCF-7 breast cancer cells underwent apoptosis (around 45% and 55%, respectively, with 10 and 20 μM of ARC) after 24 hours of treatment (FIGS. 5A and 5B). […] To evaluate the extent to which ARC-mediated apoptosis is p53-dependent, an MCF-7 cell line that stably expresses a short hairpin RNA (shRNA) targeting p53 (MCF-7-p53si) was used.
# [4] = system: phospho-RNA polymerase II; assay: Immunoblot of phospho-RNA polymerase II in HCT-116 cells; format: cell-based, human; settings: 3 hours
# Method: as §1
# It is known that DRB and flavopiridol inhibit transcription by blocking the kinase activity of P-TEFb, which in turn leads to decreased phosphorylation of RNA polymerase II C-terminal domain (CTD). To determine if ARC operates by a similar mechanism, a kinase assay was performed with purified P-TEFb using GST-CTD (GST tagged C-terminal domain of RNA polymerase II) as the substrate. […] To evaluate this effect in vivo, HCT-116 cells were treated with ARC for 3 hours and analyzed levels of phospho-RNA polymerase II by immunoblotting. While the total amount of RNA polymerase II remained unchanged, phosphorylation of the RNA polymerase II CTD decreased upon ARC treatment (FIG. 2D), consistent with the in vitro kinase assay.
# [5] = system: LIM1215 colon cancer, AGS gastric cancer and HepG2 liver cancer cells; assay: Cleaved caspase-3 immunoblot in cancer cell lines of different origin; format: cell-based, human; settings: 48 hours
# Method: as §1
# [6] = system: Mcl-1, Bcl-2; assay: Immunoblot of Bcl-2 and Mcl-1 levels; format: cell-based
# Method: FIG. 8. ARC downregulates Mcl-1 levels in different cancer cells. (A) U937 leukemia cells were treated with different concentrations of ARC as indicated for 24 hours and the cell lysates were probed for Mcl-1 levels. (B) Neuroblastoma cell lines were treated either with DMSO or 1 μM ARC for 24 hours and levels of Mcl-1 were assessed by immunoblotting.
# In order to further probe the mechanism of ARC-induced apoptosis, whether or not ARC causes mitochondrial injury was investigated. Permeabilization of mitochondria, followed by cytochrome c release has previously been observed for transcriptional inhibitor flavopiridol. For this analysis, leukemia cell lines CEM, HL-60, NB4 and U937 were treated with either DMSO or ARC. […] It is well known that the Bcl2 family members (eg., Bcl-2, Bcl-XL, Mcl-1) protect the mitochondrial integrity, thereby acting in an anti-apoptotic manner. It is possible that ARC modulates the expression of one or more of these proteins to cause mitochondrial injury.
# [7] = system: SV40-transformed MRC-5 human fetal lung fibroblasts; assay: Apoptosis assays in SV40-transformed MRC-5 fibroblasts; format: cell-based; settings: 24 hours
# Method: as §1, §2, §3
# [8] = system: HUVECs; assay: Cord formation assay; format: cell-based; settings: Homo sapiens, HUVEC, 24 hours, averages from three trials
# Method: as §4
# For cord formation assay, HUVECs were plated on a three dimensional layer of Matrigel, where the cells formed cord-like structures. Later, the cells were treated with vehicle (DMSO) or different concentrations of ARC for 24 hours, after which cord formation was quantitated as a function of cord junctions and cord length.
compound,measurement,setting,value
"NNc1c(C(N)=O)c2c(N)ncnc2n1[C@@H]1O[C@H](CO)[C@@H](O)[C@H]1O [ARC, 4-amino-6-hydrazino-7-beta-D-ribofuranosyl-7H-pyrrolo[2,3-d]-pyrimidine-5-carboxamide]",cell cycle profile,[1]; 24 hours,little change
same,cell cycle profile,[1]; 48 hours,G2-arrest
same,cell killing,"[1]; 10 or 20 μM, 24 hours",not susceptible to ARC-mediated cell killing
same,IC50,[2],~830 nM
same,apoptosis (DAPI staining),"[3]; 10 μM, 24 hours",around 45%
same,apoptosis (DAPI staining),"[3]; 20 μM, 24 hours",~55%
same,cleavage of caspase-9,"[3]; MCF-7, 24 hours",cleavage of caspase-9 upon ARC treatment was observed
same,cleavage of caspase-9,"[3]; MCF-7-p53si cells (shRNA targeting p53), 24 hours",Cleavage of caspase-9 was detected
same,phosphorylation of the RNA polymerase II CTD in cells,[4],decreased
same,cleavage of caspase-3,"[5]; HepG2 with stable knock-down of p53, 20 μM",showed cleavage of caspase-3
same,cleavage of caspase-3,"[5]; LIM1215, AGS and HepG2 cells, 20 μM",cleavage of caspase-3 were detected
same,Mcl-1 levels,"[6]; U937 leukemia and neuroblastoma cell lines, 24 hours",drastically reduced
same,Bcl-2 levels,[6]; data not shown,no changes in the levels of Bcl-2
same,apoptosis (DAPI staining),[7]; 5 μM,around 50%
same,apoptosis (DAPI staining),[7]; 10 μM,~70%
same,cleaved caspase-3,[7],appearance of cleaved caspase-3 was observed
same,survivin levels,[7]; wild type and SV40-transformed MRC-5 fibroblasts,further reduced
same,IC50,"[8]; read-out: IC50, cord junctions",~345 nM
same,IC50,"[8]; read-out: IC50, cord length",~382 nM

# — patent US8207136B2, “Nucleoside compounds and methods of use thereof” (The Board of Trustees of the University of Illinois, priority 2005, dated 2012)
